US6939859B1, “Skin preparations for external use” (CCI Corp., priority 1999, dated 2005)

Experiments:
interleukin-1α (IL-1α) [1] = assay: Effect of curing UVB disorder (IL-1α production, sample added after irradiation); format: cell-based; details: cornified cells of normal human neonate foreskin; 0.1 mM sample added after UVB 30 mJ/cm^2; 6 h culture; ELISA; means ± S.E.
Procedure: Cornified cells of normal human neonate foreskin scurfskin (freeze-preserved product, made by Kurabo K.K.) were adjusted to a cell density of 1.0×10^5 pieces/ml in a HuMedia-KG2 culture medium (made by Kurabo K.K.), sown in a unit volume of 2 ml in the component wells of a 6-hole plate, and cultured in an atmosphere of 5% CO2 at 37° C. for 24 hours. After completion of the culture, the culture medium was removed and the wells were each washed twice with 2 ml of Hanks buffer. The Hanks buffer alone was added in a unit volume of 1 ml to the wells. They were irradiated with a UVB (312nm) emitted from an ultraviolet lamp (made by Cosmo Bio K.K.) at a dosage of 30 mJ/cm”. The amount of the energy so emitted was measured by the use of an ultraviolet light intensity meter (made by Topcon K.K. and sold under the trademark designation of “UVR-2”) . . . . Some of these wells to which the Hanks buffer alone was added in a unit amount of 1 ml formed a control group and the remainders of them to which the Hanks buffer containing 0.1 mM of a given sample was added in a unit amount of 1 ml formed a sample-added group. The groups each consisted of 8 samples. The contents of the wells were cultured in an atmosphere of 5% CO2 at 37° C. for 6 hours.
(§1) The supernatant occurring at the end of 6 hours' culture was recovered and centrifuged at 1000 rpm for 5 minutes. The concentration of the IL-1α in the resultant supernatant was determined by the use of an ELISA kit made by ENDOGENE Corp. The significance was verified by the t-test and was applied to the groups yet to be treated.

interleukin-1α (IL-1α) [2] = assay: Effect of preventing UVB-induced cytokine (IL-1α production, sample present during irradiation); format: cell-based; details: cornified cells of normal human neonate foreskin; 0.1 mM sample during UVB 30 mJ/cm^2; 6 h culture; ELISA; means ± S.E.
Procedure: Cornified cells of normal human neonate foreskin scurfskin (freeze-preserved product, made by Kurabo K.K.) were adjusted to a cell density of 1.0×10^5 pieces/ml in a HuMedia-KG2 culture medium (made by Kurabo K.K.), sown in a unit volume of 2 ml in the component wells of a 6-hole plate, and cultured in an atmosphere of 5% CO2 at 37° C. for 24 hours. After completion of the culture, the culture medium was removed and the wells were each washed twice with 2 ml of Hanks buffer. Some of these wells to which the Hanks buffer alone was added in a unit amount of 1 ml formed a control group and the remainders of them to which the Hanks buffer containing 0.1 mM of a given sample was added in a unit amount of 1 ml formed a sample-added group. The groups each consisted of 8 samples. They were irradiated with a UVB (312 nm) emitted from an ultraviolet lamp (made by Cosmo Bio K.K.) at a dosage of 30 mJ/cm^2. The amount of the energy so emitted was measured by the use of an ultraviolet light intensity meter (made by Topcon K.K. and sold under the trademark designation of “UVR-2).
Immediately after completion of the irradiation, the wells were each washed twice with 2 m of Hanks buffer. With a HuMedia-KG2 culture medium added in a unit volume of 1 ml to the wells, the contents of the wells were cultured in an atmosphere of 5% CO2 at 37° C. for 6 hours.
as §1

V79 = assay: Test for confirming effect of promoting growth of cells, V79; format: cell-based, Chinese hamster; details: 100 μM chromanol glycoside, 72 h, neutral red, control = 100%
Procedure: (§2) V79 or NB1RGB was adjusted with a culture medium till the cell density reached 5×10^4 pieces/ml. Then, it was sown in a unit volume of 100 μl in the component wells of a 96-hole plate and cultured in an atmosphere of 5% CO2 at 37° C. for 72 hours. The culture medium used herein was the ordinary culture medium. Some of the wells effecting culture in the ordinary culture medium containing 100 μM of chromanol glycoside formed a chromanol glycoside-added group and the remainders of the wells effecting culture in the ordinary culture medium formed a control group. The groups each consisted of 80 samples. After the elapse of 72 hours from thence, a neutral red reagent (0.015%) was added in a unit volume of 100 μl to the wells and the resultant contents of the wells were cultured for 3 hours. After the 3 hours' culture, the culture medium was removed and a fixing solution (aqueous solution containing 0.5% of formaldehyde and 0.1% of calcium chloride) was added in a unit volume of 200 μl to the wells. The resultant contents of the wells were left fixing for one minute and then the fixing solution was removed. Subsequently, an extraction solution (aqueous solution containing 50% of ethanol and 1% of acetic acid) was added in a unit volume of 100 μl to the wells. The resultant contents of the wells were left standing for 20 minutes and measured for absorbency at 490 nm by the use of a micro-plate reader so as to allow computation of the number of cells. On the basis of the results of the measurement, the relative breeding ratios of the samples were determined, with the number of cells in the control groups taken as 100%.

[3] = system: fibroblasts originating in the lungs of Chinese hamster (V79); assay: Test for confirming effect of preventing ultraviolet light (UVB) disorder, V79 cells; format: cell-based; details: 1 mM chromanol glycoside, UVB 312 nm 60 mJ/cm^2, 72 h culture, neutral red, non-irradiated = 100%
Procedure: (§3) The fibroblasts originating in the lungs of Chinese hamster (V79) or the diploid fibroblasts originating in the skin-of a normal person (NB1RGB) were adjusted in a culture medium till the cell density reached 5.0×10^4 pieces/ml, sown at a rate of 100 μl in each of the wells on a 96-hole plate, and cultured in an atmosphere of 5% CO2 kept at 37° C. for 24 hours. As the culture medium, an E-MEM medium containing 10% bovine fetus serum (made by Nissui K.K.) For V79 or an α-MEM medium (made by SIGMA) for NB1RGB (hereinafter each referred to as “ordinary culture medium”).
(§4) After 24 hours' culture, the culture medium was removed and the individual wells were each washed twice with 200 μl of Hanks equilibrium salt buffer (Hanksbuffer). Some of these wells to which the Hanks buffer alone was added in a unit amount of 100 μl formed a control group and the remainders of them to which the Hanks buffer having a given chromanol glycoside dissolved till a final concentration of 1 mM was added in a unit amount of 100 μl formed a chromanol glycoside-added group. The groups each consisted of 46 samples. They were irradiated with a UVB (312 nm) emitted from an ultraviolet lamp (made by Cosmo Bio K.K.) at a dosage of 60 mJ/cm^2. The amount of the energy so emitted was measured by the use of an ultraviolet light intensity meter (made by Topcon K.K. and sold under the product code of “UVR-2”).
(§5) Immediately after completion of the irradiation, the wells were each washed twice with 200 μl. With the ordinary culture medium added in a unit volume of 100 μl to the wells, the contents of the wells were cultured for 72 hours. After the elapse of 72 hours from thence, the neutral red reagent (0.015%) was added in a unit volume of 100 μl to the wells and the resultant contents of the wells were cultured for 3 hours. After the elapse of 3 hours from thence, the culture medium was removed and a fixing solution (aqueous solution containing 0.5% of formaldehyde and 0.1% of calcium chloride) was added in a unit volume of 200 μl to the wells. The resultant contents of the wells were fixed for one minute and the fixing solution was removed from the wells. Then, an extracting solution (aqueous solution containing 50% of ethanol and 1% of acetic acid) were added in a unit volume of 100 μl to the wells. The resultant contents of the wells were left standing for 20 minutes and assayed with a micro-plate reader for the absorbency at 490 nm and visually examined to count the number of live cells. On the basis of the results of the assay, the relative survival ratios of the samples were determined, with the number of cells in the groups of wells not irradiated with the ultraviolet light taken as 100%.

[4] = system: diploid fibroblasts originating in the skin of a normal person (NB1RGB); assay: Test for confirming effect of preventing ultraviolet light (UVB) disorder, NB1RGB cells; format: cell-based, human; details: 1 mM chromanol glycoside, UVB 312 nm 60 mJ/cm^2, 72 h culture, neutral red, non-irradiated = 100%
Procedure: as §3, §4, §5

NB1RGB = assay: Test for confirming effect of promoting growth of cells, NB1RGB; format: cell-based, human; details: 100 μM chromanol glycoside, 72 h, neutral red, control = 100%
Procedure: as §2

ICR type mice = assay: Test for acute toxicity; format: in vivo; details: oral, 500 mg/kg as TMG in 5% gum arabic, observation for one week
Procedure: The dermatological agent for external use of this invention was tested for acute toxicity so as to establish the safety thereof. ICR type mice4-5 weeks old were divided into groups each of three heads. The same TMG as mentioned above was suspended as a chromanol glycoside in a 5% gum arabic solution. The suspension was orally administered to the mice at a unit dosage of 500 mg/kg as reduced to TMG and the mice were kept under observation for one week. To the mice in the control group, a 5% gum arabic solution was orally administered in a unit volume of 0.3 ml. No fatality was found in any of the mice in the administration group.

[5] = system: pigment-sedimented skin of colored guinea pigs; assay: Improving effect relative to deposition of ultraviolet light-induced pigment; format: in vivo, guinea pig; details: 5% TMG solution in 50% ethanol, applied twice daily for three weeks, 5.6 μl/cm^2; brightness of skin (L value)
Procedure: Pigment-sedimented models wee produced from Al-1 type colored guinea pigs (female, 7-week old) divided into groups of 6 heads by shaving their backs and performing the irradiation of the skins of the backs with the ultraviolet light (light source: xenon lamp, dose: 2 MED×1 minute) once daily up to a total of three repetitions three to four days apart. After the models had been left standing for 10 days from thence, the specific portions of the pigment-sedimented parts were measured for the brightness of skin (L value) by the use of a calorimeter (former value). To the pigment-sedimented parts, a 5% TMG solution adjusted by using a 50% ethanol solution as a solvent was applied twice daily continuously for three weeks (amount applied:5.6 μl/cm^2). The guinea pigs which had undergone this application formed a TMG-applied group. The guinea pigs which had undergone application of a 50% ethanol solution in the place of the 5% TMG solution formed a control group. After three weeks from the start of the application, the skins of their backs were measured for the brightness with a calorimeter (latter value) to find the ΔL value(former value−lattervalue).

Row | SMILES | Amount of IL-1α produced, Effect of curing (interleukin-1α (IL-1α) [1]) [µg/mL] | Amount of IL-1α produced, Effect of prevention (interleukin-1α (IL-1α) [2]) [µg/mL] | Breeding ratio (%) (V79) | Survival ratio (%) [3] [%] | Survival ratio (%) [4] [%] | Breeding ratio (%) (NB1RGB) | Fatality (acute toxicity) (ICR type mice) | ΔL value [5]
1 | O=C1O[C@H]([C@@H](O)CO)C(O)=C1O [Ascorbic acid] | 31.7 ± 5.0 | 16.5 ± 2.8 |  |  |  |  |  | 
2 | N[C@@H](CCC(=O)N[C@@H](CS)C(=O)NCC(=O)O)C(=O)O [Glutathione] | 36.5 ± 1.6 | 7.2 ± 3.4 |  |  |  |  |  | 
3 | Cc1c(C)c2c(c(C)c1O)CCC(C)(C[C@]1(CO)O[C@H](CO)[C@@H](O)[C@@H]1O)O2 (stereo partly drawn) [TMFR, 2-(β-D-Fructofuranosyl)methyl-2,5,7,8-tetramethyl chroman-6-ol] |  |  | 126 | 89 ± 9 | 81 ± 12 | 115 |  | 
4 | Cc1c(C)c2c(c(C)c1O)CCC(C)(C[C@H]1O[C@H](CO)[C@@H](O)[C@H](O)[C@H]1O)O2 (stereo partly drawn) [TMG, 2-(α-D-Glucopyranosyl)methyl-2,5,7,8-tetramethyl chroman-6-ol] | 18.5 ± 4.2 | 14.5 ± 3.5 | 112 | 75 ± 8 | 78 ± 16 | 118 | No fatality | 2.00
5 | Cc1c(C)c2c(c(C)c1O)CCC(C)(C[C@@H]1O[C@H](CO)[C@H](O)[C@H](O)[C@H]1O)O2 (stereo partly drawn) [TMGA, 2-(β-D-Galactopyranosyl)methyl-2,5,7,8-tetramethyl chroman-6-ol] |  |  | 115 | 83 ± 7 | 83 ± 14 | 121 |  | 
6 | Cc1c(C)c2c(c(C)c1O)CCC(C)(C[C@H]1O[C@H](CO)[C@@H](O)[C@H](O)[C@@H]1O)O2 (stereo partly drawn) [TMMA, 2-(α-D-Mannopyranosyl)methyl-2,5,7,8-tetramethyl chroman-6-ol] |  |  | 124 | 96 ± 9 | 79 ± 8.7 | 121 |  | 
